Test results as given in patent publication US20210369720A1, “SYNERGISTIC COMPOSITION HAVING NEUROPROTECTIVE PROPERTIES AND METHODS OF USE THEREOF” (Rutgers, The State University of New Jersey, priority 2018, published 2021).

Experiments:
Syn^Tg mice = test: Rotarod, Syn^Tg mice; type: in vivo; details: EHT 12 mg/kg/day in chow and/or caffeine 50 mg/kg/day in drinking water from weaning until six months of age, vs untreated Syn^Tg mice
Description: (§1) Thy1-α-synuclein transgenic mice (Syn^Tg) on BDF1 background overexpressing human wild-type α-synuclein under the control of the Thy1 promoter were maintained by mating heterozygous transgenic females with WT BDF1 males (Rockenstein E, et al. (2002) Differential neuropathological alterations in transgenic mice expressing alpha-synuclein from the platelet-derived growth factor and Thy-1 promoters. J Neurosci Res 68(5):568-578). BDF1 mice (mixed C57BL/6-DBA/2) were generated every three months by mating female C57BL/6 (The Jackson Laboratory) and male DBA/2 mice (Charles River). Experiments were performed with male transgenic mice and their WT littermates. […] Wild-type littermates received regular water and control chow. […] At two months of age, mice were inoculated with α-Syn PFF unilaterally in the striatum. These treatments continued throughout the experiment until animals were sacrificed. Mice were weighed and their food and water intake was quantified weekly. Animals were housed 2-5/cage in an AAALAC approved facility in a temperature- and humidity-controlled environment under a 12-hour light/dark cycle and were maintained on a diet of lab chow and water ad libitum. […]

[1] = test system: phosphorylated α-synuclein (p-α-Syn); test: Western blot of p-α-Syn in cortical tissue lysates, Syn^Tg mice; type: in vivo; details: EHT 12 mg/kg/day and/or caffeine 50 mg/kg/day until six months of age, vs untreated Syn^Tg mice
Description: as §1, with “weekly.” for “weekly. Animals were housed 2-5/cage in an AAALAC approved facility in a temperature- and humidity-controlled environment under a 12-hour light/dark cycle and were maintained on a diet of lab chow and water ad libitum.”
Human neuroblastoma SH-SY5Y cells were cultured in DMEM-F12 with 10% FBS. […] Protein concentration was determined by bicinchonic acid (BCA) method (Pierce), equal amount of protein was separated on 5-20% SDS-PAGE gel (Genescript) and transferred to nitrocellulose or PVDF membrane (Biorad). […]

PP2A = test: Western blot of PP2A methylation, striatal tissue lysates of Syn^Tg mice; type: in vivo; details: EHT 12 mg/kg/day and/or caffeine 50 mg/kg/day
Description: Thy1-α-synuclein transgenic mice (Syn^Tg) on BDF1 background overexpressing human wild-type α-synuclein under the control of the Thy1 promoter were maintained by mating heterozygous transgenic females with WT BDF1 males (Rockenstein E, et al. (2002) Differential neuropathological alterations in transgenic mice expressing alpha-synuclein from the platelet-derived growth factor and Thy-1 promoters. J Neurosci Res 68(5):568-578). BDF1 mice (mixed C57BL/6-DBA/2) were generated every three months by mating female C57BL/6 (The Jackson Laboratory) and male DBA/2 mice (Charles River). Experiments were performed with male transgenic mice and their WT littermates. […] Wild-type littermates received regular water and control chow. […] At two months of age, mice were inoculated with α-Syn PFF unilaterally in the striatum. These treatments continued throughout the experiment until animals were sacrificed. Mice were weighed and their food and water intake was quantified weekly. Animals were housed 2-5/cage in an AAALAC approved facility in a temperature- and humidity-controlled environment under a 12-hour light/dark cycle and were maintained on a diet of lab chow and water ad libitum. All animal procedures were approved by the Rutgers-Robert Wood Johnson Medical School Institutional Animal Care and Use Committee and were performed according to the National Institutes of Health Guide for the Care and Use of Laboratory Animals.
Human neuroblastoma SH-SY5Y cells were cultured in DMEM-F12 with 10% FBS. At 50% confluency, cells were treated with 1 gg/ml mouse α-Syn PFF in DMEM-F12 with 1% FBS for 7 days. Medium was refreshed every 3 days. Cell harvesting was done with 2% SDS in PBS supplemented with protease inhibitor (Millipore) and phosphatase inhibitor (Sigma-Aldrich). Lysates were sonicated and boiled at 95° C. for 5 minutes. Protein concentration was determined by bicinchonic acid (BCA) method (Pierce), equal amount of protein was separated on 5-20% SDS-PAGE gel (Genescript) and transferred to nitrocellulose or PVDF membrane (Biorad). Following transfer, membranes were blocked for 1 hour at room temperature in blocking buffer (Li-Cor) or 5% (w/v) BSA/TBS-Tween 0.1% (v/v). Primary antibodies were diluted in blocking buffer or 5% (w/v) BSA/TBS-Tween 0.1% (v/v) and incubated with the membranes at 4° C. overnight. Membranes were washed three times in TBS-Tween and incubated in diluted IRDye 800CW or HRP conjugated secondary antibody for 1 hour at room temperature. Following washing, membranes were scanned by Li-Cor Odyssey CLx infrared imaging system or treated with the Western Lightning ECL-plus reagents (PerkinElmer) and exposed to autoradiography films (LabScientific).

[2] = test system: α-Syn PFF inoculated WT mice; test: Rotarod, α-Syn PFF inoculated WT mice; type: in vivo; details: EHT 12 mg/kg/day in diet and/or caffeine 50 mg/kg/day in drinking water from weaning, 6 months post-inoculation
Description: as §1

[3] = test system: α-Syn PFF inoculated WT mice; test: Morris Water Maze, α-Syn PFF inoculated WT mice; type: in vivo; details: EHT 12 mg/kg/day and/or caffeine 50 mg/kg/day, 6 months post-inoculation, test also not affected by PFF inoculation
Description: as §1

Iba-1 = test: Immunohistochemical staining of Iba-1 in the striatum, α-Syn PFF inoculated WT mice; type: in vivo; details: EHT 12 mg/kg/day and/or caffeine 50 mg/kg/day, vs untreated α-Syn PFF inoculated group
Description: as §1

[4] = test system: Tyrosine hydroxylase (TH); test: Striatal TH staining, α-Syn PFF inoculated WT mice; type: in vivo; details: EHT 12 mg/kg/day and/or caffeine 50 mg/kg/day, vs untreated α-Syn PFF inoculated mice
Description: as §1

SH-SY5Y cells = test: Cytotoxicity of α-Syn PFF by propidium iodide (PI) exclusion in SH-SY5Y cells; type: cell-based, Human; details: SH-SY5Y cells challenged with mouse α-Syn PFF for seven days; vs untreated α-Syn PFF-challenged cells (2.5 fold increase of PI positive cells)

## CCCCCCCCCCCCCCCCCCCC(=O)NCCc1c[nH]c2ccc(O)cc12 [EHT, eicosanoyl-5-hydroxytryptamide]
Syn^Tg mice
  performance on the rotarod: did not improve performance
[1]
  p-α-Syn levels by Western blot, cortical tissue lysates: no significant effect
PP2A
  ratio between methyl- and demethyl-PP2A: did not change
PP2A; normalized to total PP2A
  Demethylated PP2A (demethyl-PP2A) levels: not affected
  Methylated PP2A (Methyl-PP2A) levels: did not change
[2]
  performance on the rotarod: improved performance
[3]
  Learning and memory task on the Morris Water Maze: not affected
Iba-1
  microglial activation (Iba-1) in the contralateral striatum: only a partial effect that was statistically insignificant
  microglial activation (Iba-1) in the ipsilateral striatum: only a partial effect that was statistically insignificant
[4]
  TH staining of dopaminergic terminals in the striatum (ipsilateral and contralateral): non-significant increase
SH-SY5Y cells
  cytotoxicity of α-Syn PFF, number of PI positive cells (cell viability): modestly protected
